Results reported in US8431593B2, “Heteroaryl amide derivatives” (H. Lundbeck A/S, priority 2006, dated 2013).

Molecular target: T1, P2X7 receptor (Homo sapiens, UniProt Q99572)
T1 construct: host or cells: SH-SY5Y
T1 sequence (Q99572 1-595): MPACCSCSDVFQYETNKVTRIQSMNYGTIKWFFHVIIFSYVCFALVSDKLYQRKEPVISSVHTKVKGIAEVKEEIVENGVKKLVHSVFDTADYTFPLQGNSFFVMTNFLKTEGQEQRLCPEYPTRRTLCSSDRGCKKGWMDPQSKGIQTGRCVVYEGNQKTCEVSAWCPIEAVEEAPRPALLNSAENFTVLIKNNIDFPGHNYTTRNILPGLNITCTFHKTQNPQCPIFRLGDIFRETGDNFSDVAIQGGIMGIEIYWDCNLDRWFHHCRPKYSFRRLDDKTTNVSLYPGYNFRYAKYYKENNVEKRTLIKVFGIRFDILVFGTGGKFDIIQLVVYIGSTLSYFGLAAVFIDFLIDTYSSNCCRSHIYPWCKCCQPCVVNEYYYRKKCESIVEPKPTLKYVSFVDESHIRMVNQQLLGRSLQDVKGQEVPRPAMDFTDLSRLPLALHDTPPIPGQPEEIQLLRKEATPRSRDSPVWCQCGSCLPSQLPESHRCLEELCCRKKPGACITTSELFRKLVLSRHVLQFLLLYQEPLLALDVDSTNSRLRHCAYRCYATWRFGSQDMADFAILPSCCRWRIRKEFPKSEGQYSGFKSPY
Experiment: P2X7 calcium mobilization assay, high throughput, antagonist activity (Example 4A)
Type: cell-based
Conditions: 50% decrease in the fluorescence response of cells exposed to 80 μM 2′(3′)-O-(4-benzoyl-benzoyl)adenosine 5′-triphosphate; Example 4A; read-out: IC50
In short: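 100,000 cells/well, plated day -1. Dye 1 h → rinse → compound 1 h, RT → FLIPR^TETRA Ca2+ mobilization. Max RFU minus mean negative control (no agonist); mean agonist-well max as positive control.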

`CC(C)[C@@H]1CN(C(=O)Cc2cn3c(C(=O)NC[C@@H]4CC[C@@H]5C[C@H]4C5(C)C)cccc3n2)CCN1` [Compound 571, N-{[(1R,2R,5R)-6,6-dimethylbicyclo[3.1.1]hept-2-yl]methyl}-2-{2-[(3R)-3-isopropylpiperazin-1-yl]-2-oxoethyl}imidazo[1,2-a]pyridine-5-carboxamide] gave an IC50 of less than 2000 nM.
In the case of `COCCCN(C(=O)Cc1cn2c(C(=O)NC[C@@H]3CC[C@@H]4C[C@H]3C4(C)C)cccc2n1)C1CCNCC1(C)C` (stereo partly drawn) [Compound 572, N-{[(1R,2R,5R)-6,6-dimethylbicyclo[3.1.1]hept-2-yl]methyl}-2-{2-[(3,3-dimethylpiperidin-4-yl)(3-methoxy-propyl)amino]-2-oxoethyl} imidazo[1,2-a] pyridine-5-carboxamide], the IC50 is reported as less than 2000 nM.
With `COCCN(C(=O)Cc1cn2c(C(=O)NC[C@@H]3CC[C@@H]4C[C@H]3C4(C)C)cccc2n1)C1CCNCC1(C)C` (stereo partly drawn) [Compound 573, N-{[(1R,2R,5R)-6,6-dimethylbicyclo[3.1.1]hept-2-yl]methyl}-2-{2-[(3,3-dimethyl-piperidin-4-yl)(2-methoxyethyl)amino]-2-oxoethyl}imidazo [1,2-a]pyridine-5-carboxamide] the IC50 was less than 2000 nM.
`CN(C)CCN(C(=O)Cc1cn2c(C(=O)NC[C@@H]3CC[C@@H]4C[C@H]3C4(C)C)cccc2n1)C1CCNCC1(C)C` (stereo partly drawn) [Compound 574, 2-(2-{[2-(dimethylamino)ethyl] (3,3-dimethylpiperidin-4-yl)amino}-2-oxoethyl)-N-{[(1R,2R,5R)-6,6-dimethylbicyclo [3.1.1]hept-2-yl]methyl}imidazo[1,2-a]pyridine-5-carboxamide] gave an IC50 of less than 2000 nM.
With `CC1(C)[C@@H]2CC[C@@H](CNC(=O)c3cccc4nc(CC(=O)N5CCCC(CN)C5)cn34)[C@H]1C2` (stereo partly drawn) [Compound 578, 2-{2-[3-(aminomethyl)piperidin-1-yl]-2-oxoethyl}-N-{[(1R,2R,5R)-6,6-dimethylbicyclo[3.1.1]hept-2-yl]methyl}imidazo[1,2-a]pyridine-5-carboxamide] the IC50 was less than 2000 nM.
`CC1(C)[C@@H]2CC[C@@H](CNC(=O)c3cccc4nc(CC(=O)N5CCCCC5CN)cn34)[C@H]1C2` (stereo partly drawn) [Compound 579, 2-{2-[2-(aminomethyl)piperidin-1-yl]-2-oxoethyl}-N-{[(1R,2R,5R)-6,6-dimethylbicyclo[3.1.1]hept-2-yl]methyl}imidazo[1,2-a]pyridine-5-carboxamide] gave an IC50 of less than 2000 nM.
In the case of `CC1(C)[C@@H]2CC[C@@H](CNC(=O)c3cccc4nc(CC(=O)N5CCCC5CN)cn34)[C@H]1C2` (stereo partly drawn) [Compound 580, 2-{2-[2-(aminomethyl)pyrrolidin-1-yl]-2-oxoethyl}-N-{[(1R,2R,5R)-6,6-dimethylbicyclo[3.1.1]hept-2-yl]methyl}imidazo[1,2-a]pyridine-5-carboxamide], the IC50 is reported as less than 2000 nM.
Work on `CC1(C)[C@@H]2CC[C@@H](CNC(=O)c3cccc4nc(CC(=O)N5CCCC(N)C5)cn34)[C@H]1C2` (stereo partly drawn) [Compound 581, 2-[2-(3-aminopiperidin-1-yl)-2-oxoethyl]-N-{[(1R,2R,5R)-6,6-dimethylbicyclo[3.1.1]hept-2-yl]methyl}imidazo[1,2-a]pyridine-5-carboxamide] yielded an IC50 of less than 2000 nM.
`CC1(C)[C@@H]2CC[C@@H](CNC(=O)c3cccc4nc(CC(=O)N5CCC[C@@H]5CN)cn34)[C@H]1C2` [Compound 584, 2-{2-[(2R)-2-(aminomethyl)pyrrolidin-1-yl]-2-oxoethyl}-N-{[(1R,2R,5R)-6,6-dimethylbicyclo [3.1.1]hept-2-yl]methyl}imidazo [1,2-a]pyridine-5-carboxamide] was tested, and the IC50 was less than 2000 nM.
`CC1(C)[C@@H]2CC[C@@H](CNC(=O)c3cccc4nc(CC(=O)N5CCC[C@H]5CN)cn34)[C@H]1C2` [Compound 587, 2-{2-[(2S)-2-(aminomethyl)pyrrolidin-1-yl]-2-oxoethyl}-N-{[(1R,2R,5R)-6,6-dimethylbicyclo [3.1.1]hept-2-yl]methyl}imidazo[1,2-a]pyridine-5-carboxamide] gave an IC50 of less than 2000 nM.
